According to patent US11607398B2, “Chlorogenic acid composition and method of weight management” (Vidya Herbs, Inc., priority 2015, dated 2023):
Several values for one entry are separate records, joined by “and”; a condition that tells them apart may be missing. Identical values can stand only once.

How the values were obtained:
calf thymus DNA = assay: Protective effect on DNA scission induced by hydroxyl radical (TBA assay); format: biochemical
Procedure: In this assay hydroxyl radicals are typically generated within a mixture of ascorbic acid, H2O2 and Fe3+-ethylenediaminetetracetic acid (EDTA); those radicals that are not scavenged by other components of the reaction mixture will eventually attack deoxyribose, thus degrading it into a series of fragments.
The experiment was conducted using calf thymus DNA. Briefly, sample was dissolved in ethanol at 1 mg/mL. 50 μl of different concentration of sample was then separately taken into mini tubes followed by addition of 400 μL of phosphate buffer (0.2 mol/L, pH 7.4). Subsequently, 50 μL DNA sodium, 50 μL H2O2, 50 μL FeCl3 and 50 μL Na2EDTA (1 mmol/L) were added. The reaction was initiated by adding 50 μL ascorbic acid (18 mmol/L) and the total volume of the reaction mixture was adjusted to 800 μL with buffer. After incubation in a water bath at 55° C. for 20 min, the reaction was terminated by adding 250 μL TCA.
The color was then developed by addition of 150 μL of TBA and heating in an oven at 105° C. for 15 min. The mixture was cooled and absorbance was measured at 532 nm against the buffer (as blank). The percent of protection against DNA damage is expressed Protective effect %=(1−A/A0)×100 Where A0 is the absorbance of the mixture without sample, and A is the absorbance of the mixture with sample. Results

[1] = Superoxide anion scavenging activity (NBT/NADH/PMS); format: biochemical
Procedure: Prepared all the solutions in this experiment using phosphate buffer (pH 7.4). Added 1 ml of NBT (156 μM), 1 ml of NADH (468 μM) and 3 ml of test samples to all test tubes. The reaction was started by adding 100 ml of PMS (60 μM) and incubated the mixture at 25° C. for 5 min followed by measurement of absorbance at 560 nm. The percentage of scavenging was calculated using formula: % Scavenging=Ac−As/Ac×100 Where AC was the absorbance of the control (blank) and As was the absorbance in the presence of the composition.

[2] = DPPH radical scavenging assay; format: biochemical
Procedure: The free radical scavenging capacity of the test sample was determined using DPPH scavenging assay. DPPH solution was prepared in 95% methanol. Freshly prepared DPPH solution was taken in test tubes and different concentration of test samples were added and incubated for 20 min. The absorbance was read at 517 nm using a spectrophotometer. Blank was prepared containing the same volume of reaction mixture without any tested samples. The percentage of scavenging was calculated using the formula: % Scavenging=Ac−As/Ac×100 Where AC was the absorbance of the control (blank) and AS was the absorbance in the presence of the composition (Braca et al., 2001).

[3] = Reducing power assay (Fe3+ to Fe2+); format: biochemical; parameters: Reducing power activity: unit not given here
[4] = test system: Salmonella typhimurium TA 100; format: cell-based; settings: TA 100, +s9, positive control, concentration not given
[5] = test system: Salmonella typhimurium TA 98; assay: Ames Salmonella mutagenicity test (preincubation method), strain TA 98; format: cell-based; settings: TA 98, +s9, positive control, concentration not given

In the case of `COc1ccc(O)c(C(C)(C)C)c1` [BHA], the “% protective effect (DNA damage)” value (calf thymus DNA; 10 μg/ml) is reported as 15.79 ± 0.89%, the “% protective effect (DNA damage)” value (calf thymus DNA; 20 μg/ml) is reported as 19.25 ± 1.09% and the “% protective effect (DNA damage)” value (calf thymus DNA; 40 μg/ml) is reported as 32.50 ± 2.12%. For the same molecule, the “% protective effect (DNA damage)” value (calf thymus DNA; 60 μg/ml) was 39.16 ± 0.33%, the “% protective effect (DNA damage)” value (calf thymus DNA; 80 μg/ml) was 43.04 ± 0.29% and the “% protective effect (DNA damage)” value (calf thymus DNA; 100 μg/ml) was 51.37% and 51.37 ± 4.06%.

With `O=C1O[C@H]([C@@H](O)CO)C(O)=C1O` [Ascorbic acid] the “% inhibition (superoxide scavenging activity)” value ([1]; 20 μg/ml) was 84.80%, the “Absorbance @560 nm” value ([1]; 20 μg/ml) was 0.038 and the “% inhibition (superoxide scavenging activity)” value ([1]; 40 μg/ml) was 85.20%. The “Absorbance @560 nm” value ([1]; 40 μg/ml) was 0.037, the “% inhibition (superoxide scavenging activity)” value ([1]; 60 μg/ml) was 88.40% and the “Absorbance @560 nm” value ([1]; 60 μg/ml) was 0.029. The “% inhibition (superoxide scavenging activity)” value ([1]; 80 μg/ml) was 89.20%, the “Absorbance @560 nm” value ([1]; 80 μg/ml) was 0.027 and the “% inhibition (superoxide scavenging activity)” value ([1]; 100 μg/ml) was 89.60%. For the same molecule, the “Absorbance @560 nm” value ([1]; 100 μg/ml) was 0.026, the “% inhibition (DPPH scavenging activity)” value ([2]; 20 μg/ml) was 83.21% and the “Absorbance @517 nm” value ([2]; 20 μg/ml) was 0.046. The “% inhibition (DPPH scavenging activity)” value ([2]; 40 μg/ml) was 90.88%, the “Absorbance @517 nm” value ([2]; 40 μg/ml) was 0.025 and the “% inhibition (DPPH scavenging activity)” value ([2]; 60 μg/ml) was 94.53%. For the same molecule, the “Absorbance @517 nm” value ([2]; 60 μg/ml) was 0.015, the “% inhibition (DPPH scavenging activity)” value ([2]; 80 μg/ml) was 94.89% and the “Absorbance @517 nm” value ([2]; 80 μg/ml) was 0.014. The “% inhibition (DPPH scavenging activity)” value ([2]; 100 μg/ml) was 96.72%, the “Absorbance @517 nm” value ([2]; 100 μg/ml) was 0.009 and the “% inhibition (DPPH scavenging activity)” value ([2]; 100 μg/ml, listed as ascorbic acid) was 96.71%. For the same molecule, the “Absorbance (reductive capability, 700 nm)” value ([3]; 100 μg/ml) was 0.970, the Reducing power activity ([3]; 20 (Table 7; range 20-100 μg/ml per text)) was 15.46 and the Reducing power activity ([3]; 40 (Table 7)) was 16.60. The Reducing power activity ([3]; 60 (Table 7)) was 16.61, the Reducing power activity ([3]; 80 (Table 7)) was 17.33 and the Reducing power activity ([3]; 100 (Table 7)) was 18.59.

With `Nc1ccc2cc3ccccc3cc2c1` [PC 2AF, 2-aminoanthracene] the “Revertant colonies/plate (Mean n = 2 ± S.D.)” value [4] was 2737 ± 4.9 Revertant colonies/plate and the “Revertant colonies/plate (Mean n = 2 ± S.D.)” value [5] was 1560 ± 3.53 Revertant colonies/plate.
